Laboratory results reported in the NIST ThermoML archive (doi:10.1016/j.jct.2008.01.025).
± gives the expanded uncertainty stated by the source.

What was measured:
[1] = 298.15 K, 101.33 kPa, Liquid
[2] = refractive index (Na D-line) (dimensionless); conditions: 298.15 K; 101.33 kPa; Liquid; Standard Abbe refractometry

| mass density [1] [kg/m3] | refractive index [2] | Compound | mass density ([1]; Vibrating tube method) [kg/m3] |
| --- | --- | --- | --- |
| 771.15 ± 0.85 | 1.43232 ± 0.0004 | CCCCCCCCCCCCCCCC [hexadecane] | – |
| 679.466 ± 0.66 | 1.38517 ± 0.00036 | CCCCCCC [heptane] | – |
| 745.32 ± 0.91 | 1.42011 ± 0.0004 | CCCCCCCCCCCC [dodecane] | – |
| 1058.5 ± 0.28 | 1.52581 ± 0.00036 | c1ccsc1 [thiophene] | – |

| Compound | mass density [1] [kg/m3] | refractive index [2] | mass density ([1]; Vibrating tube method) [kg/m3] |
| --- | --- | --- | --- |
| CCCCCCCC[n+]1ccn(C)c1.F[B-](F)(F)F [1-methyl-3-octylimidazolium tetrafluoroborate] | – | 1.43329 ± 0.00069 | 1104.42 ± 2.3 |
